Data: PubChem BioAssay AID328 (DTP/NCI, 2004)
Where “and” joins values, the source holds several entries; their conditions need not be identical. Equal values may be shown once. Inconclusive results and toxic doses are left out.

System: BDF1 mice, P388 leukemia ip, median survival T/C
Test: NCI In Vivo Anticancer Drug Screen. Data for tumor model P388 Leukemia (intraperitoneal) in B6D2F1 (BDF1) mice
Conditions: endpoint: median survival time, higher = longer survival
Summary of the method: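 Vehicle-dosed animals serve as the reference; survival of compound-dosed, tumour-implanted mice is divided by it.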

[1] = dose: 6.25 mg/kg/injection, schedule: Q04DX003 (ip), vehicle: Klucel (hydroxypropylcellulose) (HPC)
[2] = dose: 12.5 mg/kg/injection, schedule: Q04DX003 (ip), vehicle: Klucel (hydroxypropylcellulose) (HPC)
[3] = dose: 50.0 mg/kg/injection, schedule: Q01DX009 (ip), vehicle: saline with Tween-80
[4] = dose: 200.0 mg/kg/injection, schedule: Q04DX003 (ip), vehicle: saline with Tween-80
[5] = dose: 25.0 mg/kg/injection, schedule: Q01DX009 (ip), vehicle: saline with Tween-80
[6] = dose: 50.0 mg/kg/injection, schedule: Q01DX009 (ip), vehicle: saline
[7] = dose: 12.5 mg/kg/injection, schedule: Q01DX009 (ip), vehicle: saline
[8] = dose: 25.0 mg/kg/injection, schedule: Q01DX009 (ip), vehicle: saline
[9] = dose: 12.5 mg/kg/injection, schedule: Q01DX009 (ip), vehicle: saline with Tween-80

C1CSCSC1
T/C [1]: 100 % of control
T/C [2]: 95 % of control
T/C (dose: 25.0 mg/kg/injection, schedule: Q04DX003 (ip), vehicle: Klucel (hydroxypropylcellulose) (HPC)): 87 % of control

O=C(O)C1CCC2(CCCCC2)CC1
T/C (dose: 6.25 mg/kg/injection, schedule: Q01DX009 (ip), vehicle: water): 106 % of control
T/C (dose: 12.5 mg/kg/injection, schedule: Q01DX009 (ip), vehicle: water): 100 % of control
T/C (dose: 12.5 mg/kg/injection, schedule: Q04DX003 (ip), vehicle: water): 104 % of control
T/C (dose: 25.0 mg/kg/injection, schedule: Q01DX009 (ip), vehicle: water): 113 % of control and 117 % of control
T/C (dose: 25.0 mg/kg/injection, schedule: Q04DX003 (ip), vehicle: water): 94 % of control and 106 % of control and 116 % of control
T/C (dose: 50.0 mg/kg/injection, schedule: Q01DX009 (ip), vehicle: water): 99 % of control and 106 % of control
T/C (dose: 100.0 mg/kg/injection, schedule: Q01DX009 (ip), vehicle: water): 94 % of control and 100 % of control
T/C (dose: 200.0 mg/kg/injection, schedule: Q01DX009 (ip), vehicle: water): 88 % of control

Clc1c(Cl)c(CBr)c(Cl)c(CBr)c1Cl
T/C (dose: 20.0 mg/kg/injection, schedule: Q01DX009 (ip), vehicle: Klucel (hydroxypropylcellulose) (HPC)): 100 % of control
T/C (dose: 40.0 mg/kg/injection, schedule: Q01DX009 (ip), vehicle: Klucel (hydroxypropylcellulose) (HPC)): 95 % of control
T/C (dose: 50.0 mg/kg/injection, schedule: Q01DX009 (ip), vehicle: saline sonified): 113 % of control
T/C (dose: 50.0 mg/kg/injection, schedule: Q04DX003 (ip), vehicle: Klucel (hydroxypropylcellulose) (HPC)): 100 % of control
T/C (dose: 88.0 mg/kg/injection, schedule: Q04DX003 (ip), vehicle: Klucel (hydroxypropylcellulose) (HPC)): 108 % of control
T/C (dose: 100.0 mg/kg/injection, schedule: Q01DX009 (ip), vehicle: saline sonified): 118 % of control
T/C (dose: 100.0 mg/kg/injection, schedule: Q04DX003 (ip), vehicle: Klucel (hydroxypropylcellulose) (HPC)): 110 % of control
T/C (dose: 132.0 mg/kg/injection, schedule: Q04DX003 (ip), vehicle: Klucel (hydroxypropylcellulose) (HPC)): 91 % of control
T/C (dose: 132.0 mg/kg/injection, schedule: Q04DX003 (ip), vehicle: saline sonified): 122 % of control
T/C (dose: 200.0 mg/kg/injection, schedule: Q04DX003 (ip), vehicle: saline sonified): 150 % of control

COc1cc2c(c3c1c(=O)c1ccccc1n3C)C=CC(C)(C)O2
T/C (dose: 12.5 mg/kg/injection, schedule: Q01DX010 (ip), vehicle: saline): 100 % of control
T/C (dose: 25.0 mg/kg/injection, schedule: Q01DX010 (ip), vehicle: saline): 90 % of control
T/C (dose: 50.0 mg/kg/injection, schedule: Q01DX010 (ip), vehicle: saline): 90 % of control
T/C (dose: 100.0 mg/kg/injection, schedule: Q01DX010 (ip), vehicle: saline): 90 % of control

Nc1nc(SCc2ccccc2)c2[nH]cnc2n1
T/C (dose: 8.0 mg/kg/injection, schedule: Q01DX010 (ip), vehicle: saline): 90 % of control and 100 % of control
T/C (dose: 16.0 mg/kg/injection, schedule: Q01DX010 (ip), vehicle: saline): 90 % of control and 105 % of control
T/C (dose: 32.0 mg/kg/injection, schedule: Q01DX010 (ip), vehicle: saline): 90 % of control and 110 % of control
T/C (dose: 64.0 mg/kg/injection, schedule: Q01DX010 (ip), vehicle: saline): 104 % of control and 120 % of control

CC(=O)OCC1OC(n2cnc3c(=S)nc(N)[nH]c32)C(OC(C)=O)C1OC(C)=O (centres undefined)
T/C (dose: 3.5 mg/kg/injection, schedule: Q01DX009 (ip), vehicle: saline with Tween-80): 113 % of control
T/C (dose: 5.2 mg/kg/injection, schedule: Q01DX009 (ip), vehicle: saline with Tween-80): 122 % of control
T/C (dose: 12.0 mg/kg/injection, schedule: Q01DX009 (ip), vehicle: saline with Tween-80): 90 % of control
T/C (dose: 18.0 mg/kg/injection, schedule: Q01DX009 (ip), vehicle: saline with Tween-80): 100 % of control
T/C (dose: 26.0 mg/kg/injection, schedule: Q01DX009 (ip), vehicle: saline with Tween-80): 90 % of control
T/C (dose: 40.0 mg/kg/injection, schedule: Q01DX009 (ip), vehicle: saline with Tween-80): 90 % of control
T/C [3]: 90 % of control
T/C (dose: 132.0 mg/kg/injection, schedule: Q04DX003 (ip), vehicle: saline with Tween-80): 100 % of control
T/C [4]: 166 % of control

c1ccc(N=NC2=NN(c3ccccc3)CS2)cc1
T/C [5]: 116 % of control
T/C [3]: 116 % of control

CCOC(=O)C(=NN(C)C)C(=O)OCC
T/C [6]: 104 % of control
T/C (dose: 100.0 mg/kg/injection, schedule: Q01DX009 (ip), vehicle: saline): 92 % of control
T/C (dose: 200.0 mg/kg/injection, schedule: Q01DX009 (ip), vehicle: saline): 101 % of control

Cc1nnc2c(Cl)nccn12
T/C (dose: 100.0 mg/kg/injection, schedule: Q01DX001 (ip), vehicle: saline with Tween-80): 106 % of control
T/C (dose: 200.0 mg/kg/injection, schedule: Q01DX001 (ip), vehicle: saline with Tween-80): 106 % of control

CCCCC[C@H](CN(C)C)[C@H](O)/C=C/c1ccc(Cl)cc1
T/C [7]: 101 % of control
T/C [8]: 112 % of control
T/C [6]: 108 % of control

C=[CH][Sn]([CH]=C)([CH]=C)[O]C(C)=O
T/C (dose: 1.56 mg/kg/injection, schedule: Q01DX009 (ip), vehicle: Klucel (hydroxypropylcellulose) (HPC)): 101 % of control
T/C (dose: 1.56 mg/kg/injection, schedule: Q04DX003 (ip), vehicle: Klucel (hydroxypropylcellulose) (HPC)): 91 % of control
T/C (dose: 3.12 mg/kg/injection, schedule: Q01DX009 (ip), vehicle: Klucel (hydroxypropylcellulose) (HPC)): 101 % of control and 109 % of control
T/C (dose: 3.12 mg/kg/injection, schedule: Q04DX003 (ip), vehicle: Klucel (hydroxypropylcellulose) (HPC)): 92 % of control
T/C (dose: 6.25 mg/kg/injection, schedule: Q01DX009 (ip), vehicle: Klucel (hydroxypropylcellulose) (HPC)): 110 % of control and 117 % of control
T/C [1]: 94 % of control and 101 % of control
T/C (dose: 12.5 mg/kg/injection, schedule: Q01DX009 (ip), vehicle: Klucel (hydroxypropylcellulose) (HPC)): 153 % of control and 160 % of control
T/C [7]: 153 % of control and 162 % of control
T/C [2]: 104 % of control and 106 % of control
T/C [8]: 86 % of control

C1CCCC2(CCC1)OCCO2
T/C (dose: 50.0 mg/kg/injection, schedule: Q04DX003 (ip), vehicle: saline with Tween-80): 94 % of control
T/C (dose: 100.0 mg/kg/injection, schedule: Q01DX009 (ip), vehicle: saline with Tween-80): 109 % of control
T/C (dose: 100.0 mg/kg/injection, schedule: Q04DX003 (ip), vehicle: saline with Tween-80): 100 % of control
T/C (dose: 200.0 mg/kg/injection, schedule: Q01DX009 (ip), vehicle: saline with Tween-80): 100 % of control
T/C [4]: 115 % of control and 119 % of control
T/C (dose: 400.0 mg/kg/injection, schedule: Q01DX009 (ip), vehicle: saline with Tween-80): 109 % of control
T/C (dose: 400.0 mg/kg/injection, schedule: Q04DX003 (ip), vehicle: saline with Tween-80): 112 % of control and 120 % of control

Cn1c(=O)c2[nH]c(CN(CCCl)CCCl)nc2n(C)c1=O
T/C (dose: 0.88 mg/kg/injection, schedule: Q04DX003 (ip), vehicle: saline with Tween-80): 100 % of control
T/C (dose: 1.32 mg/kg/injection, schedule: Q04DX003 (ip), vehicle: saline with Tween-80): 109 % of control
T/C (dose: 2.0 mg/kg/injection, schedule: Q04DX003 (ip), vehicle: saline with Tween-80): 119 % of control
T/C (dose: 2.4 mg/kg/injection, schedule: Q01DX009 (ip), vehicle: saline with Tween-80): 154 % of control
T/C (dose: 3.7 mg/kg/injection, schedule: Q01DX009 (ip), vehicle: saline with Tween-80): 160 % of control
T/C (dose: 5.56 mg/kg/injection, schedule: Q01DX009 (ip), vehicle: saline with Tween-80): 163 % of control and 178 % of control
T/C (dose: 8.33 mg/kg/injection, schedule: Q01DX009 (ip), vehicle: saline with Tween-80): 172 % of control
T/C [9]: 201 % of control

CCOC(=O)/C=C(\C)SC1=CC(=O)c2ccccc2C1=O
T/C (dose: 3.13 mg/kg/injection, schedule: Q01DX009 (ip), vehicle: saline with Tween-80): 102 % of control
T/C (dose: 6.25 mg/kg/injection, schedule: Q01DX009 (ip), vehicle: saline with Tween-80): 104 % of control
T/C [9]: 112 % of control
T/C [5]: 104 % of control

CC1(C)N=C(N)N=C(N)N1c1ccc(C(N)=O)cc1
T/C (dose: 50.0 mg/kg/injection, schedule: Q01DX005 (ip), vehicle: Klucel (hydroxypropylcellulose) (HPC)): 109 % of control
T/C (dose: 100.0 mg/kg/injection, schedule: Q01DX005 (ip), vehicle: Klucel (hydroxypropylcellulose) (HPC)): 112 % of control
